Patent US10738028B2, “Spiro three-membered ring, spiro five-membered ring peptide deformylase inhibitor and use thereof in antibacteria and anti-tumor” (priority 2016, dated 2020)

Assays:
Type in all cases: cell-based
[1] = test system: Moraxella catarrhalis (BCA); assay: MIC, two-fold agar dilution (CLSI), clinical isolates
Outline: (§1)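 MIC values come from two-fold agar dilution run per CLSI antimicrobial susceptibility testing procedure.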

[2] = test system: Escherichia coli (including ESBLs, non-ESBLs); assay: as above; settings: for Anti-bacterial activity (MIC), strain ECO+ 15-1: clinical isolate ECO+ 15-1; for Anti-bacterial activity (MIC), strain ECO+ 15-2: clinical isolate ECO+ 15-2; for Anti-bacterial activity (MIC), strain ECO+ 15-3: clinical isolate ECO+ 15-3; for Anti-bacterial activity (MIC), strain ECO+ 15-4: clinical isolate ECO+ 15-4; for Anti-bacterial activity (MIC), strain ECO− 15-1: clinical isolate ECO− 15-1; for Anti-bacterial activity (MIC), strain ECO− 15-2: clinical isolate ECO− 15-2; for Anti-bacterial activity (MIC), strain ECO− 15-3: clinical isolate ECO− 15-3; for Anti-bacterial activity (MIC), strain ECO− 15-4: clinical isolate ECO− 15-4
Outline: as §1

[3] = test system: Enterococcus faecalis (EFA); assay: as above
Outline: as §1

[4] = test system: methicillin-sensitive Staphylococcus aureus (MSSA); assay: as above; settings: for Anti-bacterial activity (MIC), strain MSSA 15-3: clinical isolate MSSA 15-3; for Anti-bacterial activity (MIC), strain MSSA 15-4: clinical isolate MSSA 15-4; for Anti-bacterial activity (MIC), strain MSSA 15-5: clinical isolate MSSA 15-5; for Anti-bacterial activity (MIC), strain MSSA 15-6: clinical isolate MSSA 15-6
Outline: as §1

[5] = test system: methicillin-sensitive Staphylococcus epidermidis (MSSE); assay: as above; settings: for Anti-bacterial activity (MIC), strain MSSE 15-3: clinical isolate MSSE 15-3; for Anti-bacterial activity (MIC), strain MSSE 15-4: clinical isolate MSSE 15-4; for Anti-bacterial activity (MIC), strain MSSE 15-5: clinical isolate MSSE 15-5; for Anti-bacterial activity (MIC), strain MSSE 15-6: clinical isolate MSSE 15-6
Outline: as §1

[6] = test system: Enterococcus faecium (EFM); assay: as above
Outline: as §1

[7] = test system: Streptococcus pneoumoniae (SPN); assay: as above
Outline: as §1

[8] = test system: methicillin-resistant Staphylococcus aureus (MRSA); assay: as above; settings: for Anti-bacterial activity (MIC), strain MRSA 15-1: clinical isolate MRSA 15-1; for Anti-bacterial activity (MIC), strain MRSA 15-2: clinical isolate MRSA 15-2; for Anti-bacterial activity (MIC), strain MRSA 15-3: clinical isolate MRSA 15-3; for Anti-bacterial activity (MIC), strain MRSA 15-4: clinical isolate MRSA 15-4
Outline: as §1

[9] = test system: methicillin-resistant Staphylococcus epidermidis (MRSE); assay: as above; settings: for Anti-bacterial activity (MIC), strain MRSE 15-1: clinical isolate MRSE 15-1; for Anti-bacterial activity (MIC), strain MRSE 15-2: clinical isolate MRSE 15-2; for Anti-bacterial activity (MIC), strain MRSE 15-3: clinical isolate MRSE 15-3; for Anti-bacterial activity (MIC), strain MRSE 15-7: clinical isolate MRSE 15-7
Outline: as §1

[10] = MIC in vitro anti-bacterial experiments, Gram-positive bacteria; settings: lowest MIC reached; read-out: minimum inhibitory concentration against Gram-positive bacteria
Description: 1. The invention adopts the two-fold agar dilution method recommended by the operating procedure of antimicrobial susceptibility testing set by American Clinical and Laboratory Standards Institute (CLSI) to determine the Minimum Inhibitory Concentration (MIC) of the test samples against the tested strains.

[11] = test system: BEL-7402 liver cancer cell line; assay: CCK-8 proliferation inhibition; settings: for Inhibition of proliferation, Liver cancer BEL-7402: concentration of 30 μM, 72 hours, 30 µM
Outline: (§2)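 Plating at 2000 cells/well, then incubation overnight at 37° C. Next, a range of compound concentrations for 72 hours (control 1‰ DMSO). Finally, medium decanted and CCK-8 diluted 1:10 added.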

[12] = test system: A549 lung cancer cell line; assay: CCK-8 proliferation inhibition; settings: for inhibition at 30 µM: A549, 72 h; for inhibition at 30 µM / Inhibition of proliferation, Lung cancer A549: concentration of 30 μM; for Inhibition of proliferation, Lung cancer A549: 72 hours, 30 µM
Outline: as §2

[13] = test system: MGC-803 gastric cancer cell line; assay: CCK-8 proliferation inhibition; settings: for inhibition at 30 µM: MGC-803, 72 h; for inhibition at 30 µM / Inhibition of proliferation, Gastric cancer MGC-803: concentration of 30 μM; for Inhibition of proliferation, Gastric cancer MGC-803: 72 hours, 30 µM
Outline: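 Proliferation was measured with 1:10 diluted CCK-8 after a 72-hour incubation with the inhibitors at various final concentrations, using 1‰ DMSO as the control. Cells were plated at 2000 per well. Culture media contained 10% newborn bovine serum: 1640 for Jurkat and MGC-803, F12 for PC3, DMEM high glucose for MCF-7.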

[14] = test system: HCT-116 colorectal cancer cell line; assay: CCK-8 proliferation inhibition; settings: 72 hours, CCK-8; for HCT116 inhibition rate/%: concentration of 30 μM, 30 µM
Outline: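 Cells were plated overnight at 2000 cells/well, then compound in culture medium was added at a range of final concentrations. After 72 hours in a CO2 incubator, medium was replaced with 1:10 CCK-8 solution for the read-out.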

Compound: O=C(C[C@@H](CC1CCCC1)C(=O)N1CC2(CC2)C[C@H]1C(=O)Nc1nccs1)NO [Example 72, (S)-5-((R)-2-(cyclopentylmethyl)-4-(hydroxyamino)-4-oxobutanoyl)-N-(thiazol-2-yl)-5-azaspiro[2.4]heptane-6-carboxamide]
- Anti-bacterial activity (MIC) ([1]; strain BCA 14-1): 0.25 mg/L
- Anti-bacterial activity (MIC) ([1]; strain BCA 14-4): 0.5 mg/L
- Anti-bacterial activity (MIC) ([1]; strain BCA 14-5): 0.125 mg/L
- Anti-bacterial activity (MIC) ([1]; strain BCA 14-6): 0.125 mg/L
- Anti-bacterial activity (MIC) ([1]; strain BCA 14-7): 0.5 mg/L
- Anti-bacterial activity (MIC) ([1]; strain BCA 14-8): 0.25 mg/L
- Anti-bacterial activity (MIC) ([1]; strain BCA 14-10): 0.125 mg/L
- Anti-bacterial activity (MIC), strain ECO+ 15-1 [2]: 16 mg/L
- Anti-bacterial activity (MIC), strain ECO+ 15-2 [2]: 16 mg/L
- Anti-bacterial activity (MIC), strain ECO+ 15-3 [2]: 16 mg/L
- Anti-bacterial activity (MIC), strain ECO+ 15-4 [2]: 16 mg/L
- Anti-bacterial activity (MIC), strain ECO− 15-1 [2]: 16 mg/L
- Anti-bacterial activity (MIC), strain ECO− 15-2 [2]: 16 mg/L
- Anti-bacterial activity (MIC), strain ECO− 15-3 [2]: 16 mg/L
- Anti-bacterial activity (MIC), strain ECO− 15-4 [2]: 16 mg/L
- Anti-bacterial activity (MIC) ([3]; strain EFA 15-1): 32 mg/L
- Anti-bacterial activity (MIC) ([3]; strain EFA 15-2): 32 mg/L
- Anti-bacterial activity (MIC) ([3]; strain EFA 15-3): 32 mg/L
- Anti-bacterial activity (MIC) ([3]; strain EFA 15-4): 32 mg/L
- Anti-bacterial activity (MIC) ([3]; strain EFA 15-5): 32 mg/L
- Anti-bacterial activity (MIC) ([3]; strain EFA 15-6): 32 mg/L
- Anti-bacterial activity (MIC) ([3]; strain EFA 15-9): 2 mg/L
- Anti-bacterial activity (MIC), strain MSSA 15-3 [4]: 0.125 mg/L
- Anti-bacterial activity (MIC), strain MSSA 15-4 [4]: 0.06 mg/L
- Anti-bacterial activity (MIC), strain MSSA 15-5 [4]: 0.03 mg/L
- Anti-bacterial activity (MIC), strain MSSA 15-6 [4]: 16 mg/L
- Anti-bacterial activity (MIC), strain MSSE 15-3 [5]: 0.06 mg/L
- Anti-bacterial activity (MIC), strain MSSE 15-4 [5]: 0.125 mg/L
- Anti-bacterial activity (MIC), strain MSSE 15-5 [5]: 0.125 mg/L
- Anti-bacterial activity (MIC), strain MSSE 15-6 [5]: < 0.008 mg/L
- Anti-bacterial activity (MIC) ([6]; strain EFM 15-1): 32 mg/L
- Anti-bacterial activity (MIC) ([6]; strain EFM 15-2): 32 mg/L
- Anti-bacterial activity (MIC) ([6]; strain EFM 15-3): 32 mg/L
- Anti-bacterial activity (MIC) ([6]; strain EFM 15-4): 0.5 mg/L
- Anti-bacterial activity (MIC) ([6]; strain EFM 15-5): 0.125 mg/L
- Anti-bacterial activity (MIC) ([6]; strain EFM 15-6): 0.5 mg/L
- Anti-bacterial activity (MIC) ([7]; strain SPN 16-2): 0.5 mg/L
- Anti-bacterial activity (MIC) ([7]; strain SPN 16-4): 0.25 mg/L
- Anti-bacterial activity (MIC), strain MRSA 15-1 [8]: 0.06 mg/L
- Anti-bacterial activity (MIC), strain MRSA 15-2 [8]: 0.125 mg/L
- Anti-bacterial activity (MIC), strain MRSA 15-3 [8]: 0.06 mg/L
- Anti-bacterial activity (MIC), strain MRSA 15-4 [8]: 0.125 mg/L
- Anti-bacterial activity (MIC), strain MRSE 15-1 [9]: 0.03 mg/L
- Anti-bacterial activity (MIC), strain MRSE 15-2 [9]: 0.125 mg/L
- Anti-bacterial activity (MIC), strain MRSE 15-3 [9]: 0.125 mg/L
- Anti-bacterial activity (MIC), strain MRSE 15-7 [9]: 0.125 mg/L
- MIC [10]: < 0.008 mg/L
- Inhibition of proliferation, Liver cancer BEL-7402 [11]: 76%
- inhibition at 30 µM ([12]; Homo sapiens): > 50%
- Inhibition of proliferation, Lung cancer A549 [12]: 50%
- inhibition at 30 µM ([13]; Homo sapiens): > 50%
- Inhibition of proliferation, Gastric cancer MGC-803 [13]: 63%
- HCT116 inhibition rate/% [14]: 75%

Compound: O=C(C[C@@H](CC1CCCC1)C(=O)N1CC2(CC2)C[C@H]1C(=O)Nc1nc(C(F)(F)F)cs1)NO [Example 73]
- Anti-bacterial activity (MIC) ([1]; strain BCA 14-1): 1 mg/L
- Anti-bacterial activity (MIC) ([1]; strain BCA 14-4): 1 mg/L
- Anti-bacterial activity (MIC) ([1]; strain BCA 14-5): 0.25 mg/L
- Anti-bacterial activity (MIC) ([1]; strain BCA 14-6): 1 mg/L
- Anti-bacterial activity (MIC) ([1]; strain BCA 14-7): 0.125 mg/L
- Anti-bacterial activity (MIC) ([1]; strain BCA 14-8): 0.25 mg/L
- Anti-bacterial activity (MIC) ([1]; strain BCA 14-10): 0.125 mg/L
- Anti-bacterial activity (MIC), strain ECO+ 15-1 [2]: 16 mg/L
- Anti-bacterial activity (MIC), strain ECO+ 15-2 [2]: 32 mg/L
- Anti-bacterial activity (MIC), strain ECO+ 15-3 [2]: 32 mg/L
- Anti-bacterial activity (MIC), strain ECO+ 15-4 [2]: 32 mg/L
- Anti-bacterial activity (MIC), strain ECO− 15-1 [2]: 32 mg/L
- Anti-bacterial activity (MIC), strain ECO− 15-2 [2]: 32 mg/L
- Anti-bacterial activity (MIC), strain ECO− 15-3 [2]: 32 mg/L
- Anti-bacterial activity (MIC), strain ECO− 15-4 [2]: 32 mg/L
- Anti-bacterial activity (MIC) ([3]; strain EFA 15-1): 2 mg/L
- Anti-bacterial activity (MIC) ([3]; strain EFA 15-2): 2 mg/L
- Anti-bacterial activity (MIC) ([3]; strain EFA 15-3): 2 mg/L
- Anti-bacterial activity (MIC) ([3]; strain EFA 15-4): 2 mg/L
- Anti-bacterial activity (MIC) ([3]; strain EFA 15-5): 2 mg/L
- Anti-bacterial activity (MIC) ([3]; strain EFA 15-6): 2 mg/L
- Anti-bacterial activity (MIC) ([3]; strain EFA 15-9): 2 mg/L
- Anti-bacterial activity (MIC), strain MSSA 15-3 [4]: 0.06 mg/L
- Anti-bacterial activity (MIC), strain MSSA 15-4 [4]: 0.06 mg/L
- Anti-bacterial activity (MIC), strain MSSA 15-5 [4]: 0.03 mg/L
- Anti-bacterial activity (MIC), strain MSSA 15-6 [4]: 0.06 mg/L
- Anti-bacterial activity (MIC), strain MSSE 15-3 [5]: 0.015 mg/L
- Anti-bacterial activity (MIC), strain MSSE 15-4 [5]: < 0.008 mg/L
- Anti-bacterial activity (MIC), strain MSSE 15-5 [5]: < 0.008 mg/L
- Anti-bacterial activity (MIC), strain MSSE 15-6 [5]: < 0.008 mg/L
- Anti-bacterial activity (MIC) ([6]; strain EFM 15-1): 1 mg/L
- Anti-bacterial activity (MIC) ([6]; strain EFM 15-2): 1 mg/L
- Anti-bacterial activity (MIC) ([6]; strain EFM 15-3): 0.125 mg/L
- Anti-bacterial activity (MIC) ([6]; strain EFM 15-4): 1 mg/L
- Anti-bacterial activity (MIC) ([6]; strain EFM 15-5): 0.125 mg/L
- Anti-bacterial activity (MIC) ([6]; strain EFM 15-6): 1 mg/L
- Anti-bacterial activity (MIC) ([7]; strain SPN 16-2): 1 mg/L
- Anti-bacterial activity (MIC), strain MRSA 15-1 [8]: 0.03 mg/L
- Anti-bacterial activity (MIC), strain MRSA 15-2 [8]: 0.06 mg/L
- Anti-bacterial activity (MIC), strain MRSA 15-3 [8]: 0.06 mg/L
- Anti-bacterial activity (MIC), strain MRSA 15-4 [8]: 0.06 mg/L
- Anti-bacterial activity (MIC), strain MRSE 15-1 [9]: < 0.008 mg/L
- Anti-bacterial activity (MIC), strain MRSE 15-2 [9]: 0.015 mg/L
- Anti-bacterial activity (MIC), strain MRSE 15-3 [9]: < 0.008 mg/L
- Anti-bacterial activity (MIC), strain MRSE 15-7 [9]: 0.06 mg/L
- MIC [10]: < 0.008 mg/L
- IC50 ([11]; Homo sapiens, Bel-7402, 72 hours): 10 µM
- Inhibition of proliferation, Liver cancer BEL-7402 [11]: 81%
- inhibition at 30 µM ([12]; Homo sapiens): > 50%
- IC50 ([12]; Homo sapiens, A549, 72 hours): 5.12 µM
- Inhibition of proliferation, Lung cancer A549 [12]: 63%
- inhibition at 30 µM ([13]; Homo sapiens): > 50%
- IC50 ([13]; Homo sapiens, MGC-803, 72 hours): 12.7 µM
- Inhibition of proliferation, Gastric cancer MGC-803 [13]: 65%
- IC50 ([14]; Homo sapiens, HCT-116): 6.21 µM
- HCT116 inhibition rate/% [14]: 78%
